The experiment concerns the target Cereblon (CRBN) (Homo sapiens, UniProt Q96SW2). As to the kind of experiment: biochemical. Type of experiment: binding.

Chain of Cereblon (CRBN) (Q16531 2-1140): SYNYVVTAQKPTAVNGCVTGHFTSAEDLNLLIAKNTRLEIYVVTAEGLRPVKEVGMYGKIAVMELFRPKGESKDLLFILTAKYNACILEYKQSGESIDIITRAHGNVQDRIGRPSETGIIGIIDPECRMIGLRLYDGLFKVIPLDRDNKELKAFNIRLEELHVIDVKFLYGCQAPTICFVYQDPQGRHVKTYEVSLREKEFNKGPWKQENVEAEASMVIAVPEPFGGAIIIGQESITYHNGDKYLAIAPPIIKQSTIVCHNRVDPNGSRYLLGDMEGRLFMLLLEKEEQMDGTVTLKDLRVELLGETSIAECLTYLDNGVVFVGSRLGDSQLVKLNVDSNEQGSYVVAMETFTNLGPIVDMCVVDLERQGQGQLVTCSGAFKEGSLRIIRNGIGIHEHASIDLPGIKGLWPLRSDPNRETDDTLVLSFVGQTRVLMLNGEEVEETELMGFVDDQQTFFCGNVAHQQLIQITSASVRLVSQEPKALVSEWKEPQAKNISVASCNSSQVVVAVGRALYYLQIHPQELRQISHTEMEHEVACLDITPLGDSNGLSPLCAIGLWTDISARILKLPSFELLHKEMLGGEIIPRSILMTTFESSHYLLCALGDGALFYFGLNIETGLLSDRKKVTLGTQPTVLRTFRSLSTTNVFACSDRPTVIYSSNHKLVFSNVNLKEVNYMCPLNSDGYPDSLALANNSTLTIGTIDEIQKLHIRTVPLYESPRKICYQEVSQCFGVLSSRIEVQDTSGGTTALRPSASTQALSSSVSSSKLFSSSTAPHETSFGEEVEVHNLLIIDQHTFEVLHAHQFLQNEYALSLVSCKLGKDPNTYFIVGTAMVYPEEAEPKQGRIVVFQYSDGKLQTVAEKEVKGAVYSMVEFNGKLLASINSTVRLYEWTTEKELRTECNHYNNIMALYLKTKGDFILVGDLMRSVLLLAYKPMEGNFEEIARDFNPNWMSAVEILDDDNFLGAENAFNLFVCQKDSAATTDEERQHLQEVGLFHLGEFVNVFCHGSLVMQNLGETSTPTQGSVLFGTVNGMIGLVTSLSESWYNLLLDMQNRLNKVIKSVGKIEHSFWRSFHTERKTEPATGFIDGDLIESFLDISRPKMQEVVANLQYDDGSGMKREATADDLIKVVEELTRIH
Chain of Cereblon (CRBN) (Q96SW2 whole entry): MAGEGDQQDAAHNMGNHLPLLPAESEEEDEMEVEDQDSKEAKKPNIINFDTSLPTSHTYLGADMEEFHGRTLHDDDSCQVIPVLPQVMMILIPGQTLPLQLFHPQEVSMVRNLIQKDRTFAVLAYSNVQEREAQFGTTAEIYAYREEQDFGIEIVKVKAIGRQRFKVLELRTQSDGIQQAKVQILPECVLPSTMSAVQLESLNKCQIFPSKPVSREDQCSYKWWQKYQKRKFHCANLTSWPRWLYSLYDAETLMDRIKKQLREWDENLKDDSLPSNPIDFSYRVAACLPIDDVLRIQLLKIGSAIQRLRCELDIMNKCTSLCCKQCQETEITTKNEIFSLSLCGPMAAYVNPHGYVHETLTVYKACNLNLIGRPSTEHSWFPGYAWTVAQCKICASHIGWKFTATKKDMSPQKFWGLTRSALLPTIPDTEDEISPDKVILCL

`CO[C@H]1/C=C/O[C@@]2(C)Oc3c(C)c(O)c4c(c3C2=O)C2=NC3(CCN(CC(C)C)CC3)NC2=C(NC(=O)/C(C)=C\C=C\[C@H](C)[C@H](O)[C@@H](C)[C@@H](O)[C@@H](C)[C@H](OC(C)=O)[C@@H]1C)C4=O` [Rifabutin]: 15.8 µM corresponded to half-maximal inhibition (IC50).

In turn, `CO[C@H]1/C=C/O[C@@]2(C)Oc3c(C)c(O)c4c(c3C2=O)C(=O)C=C(NC(=O)/C(C)=C\C=C\[C@H](C)[C@H](O)[C@@H](C)[C@@H](O)[C@@H](C)[C@H](OC(C)=O)[C@@H]1C)C4=O` [Rifamycin S] registered an IC50 of 3.09 µM.

For the origin of these results see publication PMC12827886 (Acta Pharmaceutica Sinica. B, 2025).
